The results in this text go back to patent publication EP3255116A1, “COMPOSITIONS COMPRISING A FLUOROOLEFIN” (The Chemours Company FC, LLC, priority 2005, dated 2006).

Data set [1] is described as follows: Kinematic viscosity of lactone compatibilizers. Format: physicochemical. The following applies: at 40°C. As for the experimental part: Lactone compatibilizers generally have a kinematic viscosity of less than about 7 centistokes at 40°C. […] Lactone compatibilizers may be available commercially or prepared by methods as described in U. S. patent application 10/910,495 filed August 3, 2004, incorporated herein by reference.

The nature of data set [2]: Flammability test ASTM E681-01, lower and upper flammability limit in air (Example 6). The following applies: 50 percent relative humidity; for LFL: lower flammability limit; for LFL / UFL: ASTM E681-01, 101 kPa (14.7 psia), 100 °C (212 °F); for UFL: upper flammability limit; for flammability: ASTM E681-01, 101 kPa, 100 °C. Format: physicochemical. As for the experimental part:
Flammable compounds may be identified by testing under ASTM (American Society of Testing and Materials) E681-01, with an electronic ignition source. Such tests of flammability were conducted on HFC-1234yf, HFC-1225ye and a mixture of the present disclosure at 101 (kPa (14.7 psia), 100 °C (212 °F), and 50 percent relative humidity, at various concentrations in air in order to determine the lower flammability limit (LFL) and upper flammability limit (UFL). The results are given in […]. TABLE 14

The compound `CCCCCC[C@H]1C[C@@H](C)OC1=O` (relative stereo) [cis-(3-hexyl-5-methyl)dihydrofuran-2-one] showed a kinematic viscosity in data set [1] of 4.5 centistokes.

Turning to `FC=C(F)C(F)(F)F` [HFC-1225ye (100wt%)], in data set [2], the LFL entry was “Non-flammable” and the UFL result is “Non-flammable”.

`FC=C(F)C(F)(F)F` [HFC-1225ye, 1,2,3,3,3-pentafluoropropene]: the flammability result in data set [2] is “reduces the flammability”.

In data set [2], `C=C(F)C(F)(F)F` [HFC-1234yf (100 wt%)] had an LFL of 5.0 vol % in air and a UFL of 14.5 vol % in air.

Turning to `C=C(F)C(F)(F)F` [HFC-1234yf, 2,3,3;3-tetrafluoropropene], the flammability result in data set [2] is “flammable”.
